Data published in patent US20020155518A1, “Method of detecting compounds that control fungal diseases via effects on sporulation” (priority 2000, published 2002).

Assays:
Aspergillus nidulans [1] = test: High-throughput screen for antisporulant activity, direct application with a replicator; type: cell-based; conditions: direct application to the medium using a replicator; 2 days at 37° C.
Text: For high-throughput screens, 245mm square bioassay dishes were poured and the medium containing the spore inoculum was allowed to solidify prior to application of test samples. Test samples, representing a broad spectrum of diverse chemical structures, were applied to the surface of the agar medium either by hand, using a replicator, or by robotic application. Each screen included a positive control treatment (e.g., 5 ∝g of one of the active benzophenones described elsewhere herein) that provided a positive response. Plates were incubated for 2 days at 37° C. Positives were initially identified by the presence of a discolored zone around the test sample. The positives were confirmed by retest followed by observation under a low power microscope (×20 magnification).
7000 compounds with diverse structures have been tested using the such a highthroughput screen. The compounds were tested by direct application to the medium using a replicator.

Aspergillus nidulans [2] = test: Sporulation assay, paper disc diffusion on PDA seeded with spores; type: cell-based, Aspergillus nidulans strain 003 (ATCC 36321)
[3] = test system: Wheat Powdery Mildew (Blumeria [Erysiphe] graminis f.sp. tritici); conditions: in vivo; note: key: '+++' =high control; '++' =moderate control; '+' =low control; '0'=no control
[4] = test system: Leptosphaeria (Septoria) nodorum; test: Protectant foliar spray test against wheat L. nodorum blotch; type: in vivo; conditions: wheat, foliar spray before inoculation; vs untreated inoculated controls; note: key: '+++' =high control; '++' =moderate control; '+' =low control; '0'=no control
[5] = test system: Apple Scab (Venturia inaequalis); test: Protectant foliar spray test against apple scab; type: in vivo; conditions: apple seedlings, foliar spray before inoculation; vs untreated inoculated controls; note: key: '+++' =high control; '++' =moderate control; '+' =low control; '0'=no control
[6] = test system: Rice Blast (Magnaporthe grisea); type: in vivo; conditions: foliar spray before inoculation, vs untreated inoculated controls

SMILES | anti-sporulation activity (Aspergillus nidulans [1]) | Active (Aspergillus nidulans [2]) | Inactive (Aspergillus nidulans [2]) | Moderately active (Aspergillus nidulans [2]) | Level of Plant Disease Control, Wheat Powdery Mildew [3] | Level of Plant Disease Control, Wheat L. nodorum [4] | Level of Plant Disease Control, Apple Scab [5] | Level of Plant Disease Control, Rice Blast [6]
CC(C)(C)CC(C)(C)c1ccc(C(=O)O)cc1 [A, 4-(1,1,3,3-tetramethylbutyl)benzoic acid] | tested positive | – | – | – | – | – | – | –
C[C@@H]([C@H](N)C(=O)N[C@H](C(=O)O)[C@H]1O[C@@H](n2ccc(=O)[nH]c2=O)[C@H](O)[C@@H]1O)[C@H](O)c1ccc(O)cn1 [Nikkomycin] | – | No | Yes | No | – | – | – | –
COc1cc(C)c(C(=O)c2c(OC)ccc(C(F)(F)F)c2C)c(OC)c1OC [T, [6-methoxy-2-methyl-3-(trifluoromethyl)phenyl](2,3,4-trimethoxy-6-methylphenyl)methanone] | – | – | – | – | +++ | 0 | 0 | 0
COc1cc(C)c(C(=O)c2c(O)ccc(Cl)c2C)c(OC)c1OC [Compound N, (3-chloro-6-hydroxy-2-methylphenyl)(2,3,4-trimethoxy-6-methylphenyl)methanone] | – | – | – | – | +++ | 0 | 0 | ++
COc1cc(C)c(C(=O)c2c(C)ccc(Cl)c2C)c(OC)c1OC [Q, (3-chloro-2,6-dimethylphenyl)(2,3,4-trimethoxy-6-methylphenyl)methanone] | – | – | – | – | +++ | 0 | + | ++
CC1=C(C(=O)Nc2ccccc2)SCCO1 [Carboxin] | – | No | Yes | No | – | – | – | –
